pEC50: −log10 of the molar value.
What was measured:
Type in all cases: cell-based
[1] = molecular target: von Hippel-Lindau disease tumor suppressor/SWI/SNF-related matrix-associated actin-dependent regulator of chromatin subfamily A member 2 (Homo sapiens) (UniProt P51531+P40337); assay: Protac activity at E3 ubiquitin-protein ligase/SMARCA2 in human VCaP cells assessed as SMARCA2 degradation at 100 nM incubated for 16 hrs by Western blot analysis relative to control
[2] = molecular target: von Hippel-Lindau disease tumor suppressor/SWI/SNF-related matrix-associated actin-dependent regulator of chromatin subfamily A member 4 (Homo sapiens) (UniProt P51532+P40337); assay: Protac activity at E3 ubiquitin-protein ligase/SMARCA4 in human VCaP cells assessed as SMARCA4 degradation at 100 nM incubated for 16 hrs by Western blot analysis relative to control
[3] = molecular target: von Hippel-Lindau disease tumor suppressor/SWI/SNF-related matrix-associated actin-dependent regulator of chromatin subfamily A member 2 (Homo sapiens, UniProt P40337+P51531); assay: Protac activity at E3 ubiquitin-protein ligase/SMARCA2 in human VCaP cells assessed as SMARCA2 degradation incubated for 16 hrs by Western blot analysis relative to control
[4] = molecular target: von Hippel-Lindau disease tumor suppressor/SWI/SNF-related matrix-associated actin-dependent regulator of chromatin subfamily A member 4 (Homo sapiens, UniProt P40337+P51532); assay: Protac activity at E3 ubiquitin-protein ligase/SMARCA4 in human VCaP cells assessed as SMARCA4 degradation incubated for 16 hrs by Western blot analysis relative to control
Sequence of von Hippel-Lindau disease tumor suppressor/SWI/SNF-related matrix-associated actin-dependent regulator of chromatin subfamily A member 4 (P51532 whole entry): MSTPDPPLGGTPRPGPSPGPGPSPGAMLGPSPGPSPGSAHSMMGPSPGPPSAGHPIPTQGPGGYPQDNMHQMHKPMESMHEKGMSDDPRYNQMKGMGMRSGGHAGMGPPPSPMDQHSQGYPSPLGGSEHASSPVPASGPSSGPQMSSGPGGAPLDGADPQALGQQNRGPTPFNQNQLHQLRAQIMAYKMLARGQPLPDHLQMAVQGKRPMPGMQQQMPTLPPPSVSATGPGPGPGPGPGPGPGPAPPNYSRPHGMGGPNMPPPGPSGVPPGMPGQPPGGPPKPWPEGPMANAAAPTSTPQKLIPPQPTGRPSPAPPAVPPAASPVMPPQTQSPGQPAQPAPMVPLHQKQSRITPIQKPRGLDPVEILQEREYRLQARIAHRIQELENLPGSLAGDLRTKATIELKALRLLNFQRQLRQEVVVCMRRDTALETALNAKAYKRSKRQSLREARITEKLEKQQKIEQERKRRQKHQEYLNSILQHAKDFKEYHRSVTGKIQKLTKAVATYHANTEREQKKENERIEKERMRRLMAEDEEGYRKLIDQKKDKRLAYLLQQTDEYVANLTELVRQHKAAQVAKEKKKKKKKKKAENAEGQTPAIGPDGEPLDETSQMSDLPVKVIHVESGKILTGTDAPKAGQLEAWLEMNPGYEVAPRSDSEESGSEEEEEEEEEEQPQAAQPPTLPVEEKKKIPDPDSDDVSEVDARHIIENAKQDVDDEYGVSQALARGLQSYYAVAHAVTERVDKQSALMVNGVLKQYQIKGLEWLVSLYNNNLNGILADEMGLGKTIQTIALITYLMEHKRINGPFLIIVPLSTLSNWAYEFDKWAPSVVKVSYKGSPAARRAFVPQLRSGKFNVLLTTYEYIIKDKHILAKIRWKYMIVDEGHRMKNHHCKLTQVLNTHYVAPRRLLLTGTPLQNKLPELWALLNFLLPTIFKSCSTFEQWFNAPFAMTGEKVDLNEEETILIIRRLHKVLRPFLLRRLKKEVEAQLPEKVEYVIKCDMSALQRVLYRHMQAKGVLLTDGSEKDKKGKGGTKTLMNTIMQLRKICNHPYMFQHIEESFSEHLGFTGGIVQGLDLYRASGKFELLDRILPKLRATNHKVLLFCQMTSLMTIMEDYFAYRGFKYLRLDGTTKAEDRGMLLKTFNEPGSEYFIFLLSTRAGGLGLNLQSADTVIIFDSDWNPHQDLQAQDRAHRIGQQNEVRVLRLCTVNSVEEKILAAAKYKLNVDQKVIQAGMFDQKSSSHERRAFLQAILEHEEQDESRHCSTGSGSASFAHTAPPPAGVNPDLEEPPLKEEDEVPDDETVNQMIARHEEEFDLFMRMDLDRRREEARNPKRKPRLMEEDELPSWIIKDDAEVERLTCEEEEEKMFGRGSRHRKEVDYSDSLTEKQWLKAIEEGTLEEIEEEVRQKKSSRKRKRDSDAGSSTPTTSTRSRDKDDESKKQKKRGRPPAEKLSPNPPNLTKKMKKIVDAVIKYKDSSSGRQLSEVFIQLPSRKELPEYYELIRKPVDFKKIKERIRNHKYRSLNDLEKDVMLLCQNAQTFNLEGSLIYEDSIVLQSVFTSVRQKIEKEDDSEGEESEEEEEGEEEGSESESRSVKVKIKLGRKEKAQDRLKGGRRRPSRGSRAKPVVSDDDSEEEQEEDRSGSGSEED
Sequence of von Hippel-Lindau disease tumor suppressor/SWI/SNF-related matrix-associated actin-dependent regulator of chromatin subfamily A member 4 (P40337 whole entry): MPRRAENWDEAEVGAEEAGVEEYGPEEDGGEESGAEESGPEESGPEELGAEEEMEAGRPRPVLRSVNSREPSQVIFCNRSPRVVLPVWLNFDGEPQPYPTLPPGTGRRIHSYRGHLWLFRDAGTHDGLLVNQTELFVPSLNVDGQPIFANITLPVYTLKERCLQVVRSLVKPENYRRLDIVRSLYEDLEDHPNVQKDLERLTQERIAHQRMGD

Sequence of von Hippel-Lindau disease tumor suppressor/SWI/SNF-related matrix-associated actin-dependent regulator of chromatin subfamily A member 2 (P51531 whole entry): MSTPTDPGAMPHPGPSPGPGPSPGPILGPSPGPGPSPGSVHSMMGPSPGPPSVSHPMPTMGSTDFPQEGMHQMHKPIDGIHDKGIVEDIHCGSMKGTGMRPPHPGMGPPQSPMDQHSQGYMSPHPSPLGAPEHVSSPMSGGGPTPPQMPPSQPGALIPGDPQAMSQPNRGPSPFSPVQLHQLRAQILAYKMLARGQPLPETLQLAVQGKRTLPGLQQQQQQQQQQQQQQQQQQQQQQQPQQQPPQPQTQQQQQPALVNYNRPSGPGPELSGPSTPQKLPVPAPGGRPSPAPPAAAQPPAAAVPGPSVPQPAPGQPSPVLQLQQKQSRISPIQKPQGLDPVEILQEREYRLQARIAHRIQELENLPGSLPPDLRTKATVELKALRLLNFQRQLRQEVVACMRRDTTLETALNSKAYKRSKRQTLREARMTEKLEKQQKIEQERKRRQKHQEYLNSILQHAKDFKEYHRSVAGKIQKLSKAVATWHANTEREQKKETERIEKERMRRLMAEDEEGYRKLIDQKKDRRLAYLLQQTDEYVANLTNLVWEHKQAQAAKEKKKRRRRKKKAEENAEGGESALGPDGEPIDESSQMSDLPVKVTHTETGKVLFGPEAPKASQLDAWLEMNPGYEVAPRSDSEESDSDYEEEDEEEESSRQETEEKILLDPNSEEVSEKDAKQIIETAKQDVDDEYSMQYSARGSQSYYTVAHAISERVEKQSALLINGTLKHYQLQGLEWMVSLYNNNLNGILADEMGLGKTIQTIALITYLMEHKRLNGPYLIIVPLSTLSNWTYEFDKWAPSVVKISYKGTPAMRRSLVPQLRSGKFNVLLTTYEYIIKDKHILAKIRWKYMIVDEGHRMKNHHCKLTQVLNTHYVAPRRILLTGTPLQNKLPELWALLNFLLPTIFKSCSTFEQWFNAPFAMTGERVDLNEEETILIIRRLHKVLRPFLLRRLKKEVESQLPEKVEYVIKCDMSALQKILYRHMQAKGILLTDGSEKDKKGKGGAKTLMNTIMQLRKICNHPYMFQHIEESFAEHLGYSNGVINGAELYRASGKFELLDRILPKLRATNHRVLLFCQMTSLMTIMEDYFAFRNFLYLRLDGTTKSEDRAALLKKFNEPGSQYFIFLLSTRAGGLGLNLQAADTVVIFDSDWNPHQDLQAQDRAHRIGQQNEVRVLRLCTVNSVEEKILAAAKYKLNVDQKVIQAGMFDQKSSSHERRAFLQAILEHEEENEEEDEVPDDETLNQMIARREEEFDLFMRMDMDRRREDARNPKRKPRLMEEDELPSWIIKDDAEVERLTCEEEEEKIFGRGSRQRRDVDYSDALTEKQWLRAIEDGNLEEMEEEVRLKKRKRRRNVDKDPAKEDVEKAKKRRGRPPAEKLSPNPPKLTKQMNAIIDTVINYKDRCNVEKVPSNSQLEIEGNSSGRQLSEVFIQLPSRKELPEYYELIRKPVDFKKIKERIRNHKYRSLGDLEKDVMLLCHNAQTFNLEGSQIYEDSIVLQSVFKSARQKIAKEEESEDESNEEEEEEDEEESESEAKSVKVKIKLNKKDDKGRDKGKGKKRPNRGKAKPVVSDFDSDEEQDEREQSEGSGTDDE
Sequence of von Hippel-Lindau disease tumor suppressor/SWI/SNF-related matrix-associated actin-dependent regulator of chromatin subfamily A member 2 (P40337 whole entry): as the sequence (P40337 whole entry) above
Sequence of von Hippel-Lindau disease tumor suppressor/SWI/SNF-related matrix-associated actin-dependent regulator of chromatin subfamily A member 4 (Homo sapiens) (P40337 whole entry, looked up): as the sequence (P40337 whole entry) above
Sequence of von Hippel-Lindau disease tumor suppressor/SWI/SNF-related matrix-associated actin-dependent regulator of chromatin subfamily A member 4 (Homo sapiens) (P51532 whole entry, looked up): as the sequence (P51532 whole entry) above
Sequence of von Hippel-Lindau disease tumor suppressor/SWI/SNF-related matrix-associated actin-dependent regulator of chromatin subfamily A member 2 (Homo sapiens) (P40337 whole entry, looked up): as the sequence (P40337 whole entry) above
Sequence of von Hippel-Lindau disease tumor suppressor/SWI/SNF-related matrix-associated actin-dependent regulator of chromatin subfamily A member 2 (Homo sapiens) (P51531 whole entry, looked up): as the sequence (P51531 whole entry) above

Row | Activity [1] [%] | Activity [2] [%] | pEC50 [3] | pEC50 [4] | SMILES
1 | 75 | 0 |  |  | Cc1ncsc1-c1ccc(CNC(=O)[C@@H]2C[C@@H](O)CN2C(=O)[C@@H](NC(=O)CN2CCC(c3ccc(-c4cnnc(-c5ccccc5O)c4)cc3)CC2)C(C)(C)C)cc1
2 | 91 | 0 | > 6.60 | > 6.60 | Cc1ncsc1-c1ccc([C@H](C)NC(=O)[C@@H]2C[C@@H](O)CN2C(=O)[C@@H](NC(=O)CN2CCC(c3ccc(-c4cnnc(-c5ccccc5O)c4)cc3)CC2)C(C)(C)C)cc1

Further lines, the compound ahead of its results:

Row | SMILES | Activity [1] [%] | Activity [2] [%] | pEC50 [3] | pEC50 [4]
3 | Cc1ncsc1-c1ccc([C@H](C)NC(=O)[C@@H]2C[C@@H](O)CN2C(=O)[C@@H](NC(=O)CC2CCN(c3ccc(-c4cnnc(-c5ccccc5O)c4)cc3)CC2)C(C)(C)C)cc1 | 97 | 40 | > 6.60 | > 6.60
4 | Cc1ncsc1-c1ccc([C@H](C)NC(=O)[C@@H]2C[C@@H](O)CN2C(=O)[C@@H](NC(=O)CN2CCN(c3ccc(-c4cnnc(-c5ccccc5O)c4)cn3)CC2)C(C)(C)C)cc1 | 94 | 0 | > 6.60 | > 6.60
5 | Cc1ncsc1-c1ccc([C@H](C)NC(=O)[C@@H]2C[C@@H](O)CN2C(=O)[C@@H](NC(=O)C2CCN(c3ccc(-c4cnnc(-c5ccccc5O)c4)cc3)CC2)C(C)(C)C)cc1 | 76 | 0 |  | 
6 | Cc1ncsc1-c1ccc([C@H](C)NC(=O)[C@@H]2C[C@@H](O)CN2C(=O)[C@@H](NC(=O)CN2CCN(c3ccc(-c4cnnc(-c5ccccc5O)c4)cc3)CC2)C(C)(C)C)cc1 | 94 | 0 | > 6.60 | > 6.60

From ChEMBL document CHEMBL5137101, “Application of Selective SMARCA2/4 PROTAC for Mutant Cancer Therapy” (ACS Med Chem Lett, 2022)
